Read-outs that look alike come from different tables or passages of the source.
What was measured:
Type in all cases: biochemical
[1] = target: T1, TYK2 (aa 871-1187, catalytic domain, GST-tag) (Homo sapiens, UniProt P29597); assay: JAK kinase assay (HTRF, phosphorylation of TK substrate-biotin), TYK2; conditions: ATP at Km (13 μM)
T1 construct: JAK1 (aa 850-1154) and TYK2 (aa 871-1187) are expressed with an N-terminally fused GST-tag; GST (N); purchased Carna Biosciences, Inc; host or cells: baculovirus expression system
T1 sequence (P29597 871-1187): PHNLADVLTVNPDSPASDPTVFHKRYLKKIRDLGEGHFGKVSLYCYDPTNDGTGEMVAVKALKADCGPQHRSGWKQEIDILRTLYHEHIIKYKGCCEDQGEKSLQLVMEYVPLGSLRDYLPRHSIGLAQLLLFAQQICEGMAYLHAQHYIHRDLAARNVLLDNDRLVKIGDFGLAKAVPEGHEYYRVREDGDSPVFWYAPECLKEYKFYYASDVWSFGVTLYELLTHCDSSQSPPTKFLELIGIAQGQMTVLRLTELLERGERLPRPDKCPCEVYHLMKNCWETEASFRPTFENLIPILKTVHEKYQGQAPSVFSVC
Outline: (§1)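 HTRF KinEASE TK format; 1 μM biotinylated peptide, Km ATP: 7 μM (JAK1, 10 mM MgCl2, 50 nM SEB), 4 μM (JAK2), 2 μM (JAK3), 13 μM (TYK2, 50 nM SEB); 5 mM MgCl2 for the latter three. RT 20-30 min, 0.75% DMSO final. Overnight detection, EC50.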

[2] = target: T2, JAK1 (aa 850-1154, catalytic domain, GST-tag) (Homo sapiens, UniProt P23458); assay: JAK kinase assay (HTRF, phosphorylation of TK substrate-biotin), JAK1; conditions: ATP at Km (7 μM)
T2 construct: JAK1 (aa 850-1154) and TYK2 (aa 871-1187) are expressed with an N-terminally fused GST-tag; GST (N); purchased Carna Biosciences, Inc; host or cells: baculovirus expression system
T2 sequence (P23458 850-1154): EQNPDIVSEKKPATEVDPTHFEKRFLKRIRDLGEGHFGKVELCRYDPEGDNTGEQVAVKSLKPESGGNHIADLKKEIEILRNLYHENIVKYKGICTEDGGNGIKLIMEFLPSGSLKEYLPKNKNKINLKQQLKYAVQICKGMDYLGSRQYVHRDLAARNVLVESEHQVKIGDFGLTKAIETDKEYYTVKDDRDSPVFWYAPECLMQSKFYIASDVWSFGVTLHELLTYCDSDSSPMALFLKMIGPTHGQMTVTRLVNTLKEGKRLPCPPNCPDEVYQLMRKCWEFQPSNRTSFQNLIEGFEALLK
Outline: as §1

[3] = target: T3, JAK3 (catalytic domain, His-tag) (Homo sapiens, UniProt P52333); assay: JAK kinase assay (HTRF, phosphorylation of TK substrate-biotin), JAK3; conditions: ATP at Km (2 μM)
T3 construct: All four purified enzymes contain only the catalytic domain; His (N); purchased Carna Biosciences, Inc; host or cells: baculovirus expression system
T3 sequence (P52333 822-1111 limits assumed): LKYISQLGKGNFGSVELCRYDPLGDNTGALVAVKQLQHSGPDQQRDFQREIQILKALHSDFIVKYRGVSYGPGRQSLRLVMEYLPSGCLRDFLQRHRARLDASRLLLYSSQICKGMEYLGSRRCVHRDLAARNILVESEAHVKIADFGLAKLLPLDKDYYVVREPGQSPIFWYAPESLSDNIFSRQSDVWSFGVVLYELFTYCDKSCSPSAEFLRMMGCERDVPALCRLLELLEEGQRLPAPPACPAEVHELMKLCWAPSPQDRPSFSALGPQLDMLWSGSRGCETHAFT
Outline: as §1

[4] = target: T4, JAK2 (catalytic domain, His-tag) (Homo sapiens, UniProt O60674); assay: JAK kinase assay (HTRF, phosphorylation of TK substrate-biotin), JAK2; conditions: ATP at Km (4 μM)
T4 construct: All four purified enzymes contain only the catalytic domain; His (N); purchased Carna Biosciences, Inc; host or cells: baculovirus expression system
T4 sequence (O60674 849-1124 limits assumed): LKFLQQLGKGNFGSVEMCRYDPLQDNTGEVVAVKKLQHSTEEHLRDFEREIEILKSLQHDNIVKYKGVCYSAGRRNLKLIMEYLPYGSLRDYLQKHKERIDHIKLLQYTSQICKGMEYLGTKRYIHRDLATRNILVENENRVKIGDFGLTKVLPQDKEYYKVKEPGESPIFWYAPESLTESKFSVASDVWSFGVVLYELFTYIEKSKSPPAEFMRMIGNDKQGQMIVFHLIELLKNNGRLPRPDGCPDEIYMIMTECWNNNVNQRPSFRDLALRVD
Outline: as §1

[5] = read-out: TYK2 kinase inhibitory activity (EC50 indicator)
[6] = read-out: JAK1 kinase inhibitory activity (EC50 indicator)
[7] = read-out: JAK3 kinase inhibitory activity (EC50 indicator)
[8] = read-out: JAK2 kinase inhibitory activity (EC50 indicator)
[9] = HTRF assay, read-out: TYK2 kinase inhibitory activity (EC50 indicator)
[10] = HTRF assay, read-out: JAK1 kinase inhibitory activity (EC50 indicator)
[11] = HTRF assay, read-out: JAK3 kinase inhibitory activity (EC50 indicator)
[12] = HTRF assay, read-out: JAK2 kinase inhibitory activity (EC50 indicator)

EC50 [1, 5] [nM] | EC50 [2, 6] [nM] | EC50 [3, 7] [nM] | EC50 [4, 8] [nM] | EC50 [1, 9] [nM] | EC50 [2, 10] [nM] | EC50 [3, 11] [nM] | EC50 [4, 12] [nM] | Structure (SMILES) | further results
> 500 | 100 to 500 | 100 to 500 | < 100 |  |  |  |  | N#Cc1ccc(C(F)(F)C(=O)N2[C@@H]3CC[C@H]2CN(c2ncnc4[nH]ccc24)C3)cc1 [Example 65, 4-{1,1-Difluoro-2-oxo-2-[3-(7H-pyrrolo[2,3-d]pyrimidin-4-yl)-3,8-diaza-bicyclo[3.2.1]oct-8-yl]-ethyl}-benzonitrile] | 
 |  |  |  | 100 to 500 | < 100 | < 100 | < 100 | CNS(=O)(=O)c1cc(C(=O)N2CCN(c3ncnc4[nH]ccc34)CC23CC3)sc1C [Example 375, 2-Methyl-5-[7-(7H-pyrrolo[2,3-d]pyrimidin-4-yl)-4,7-diaza-spiro[2.5]octane-4-carbonyl]-thiophene-3-sulfonic acid methylamide] | 
 |  |  |  | > 500 | 100 to 500 | > 500 | 100 to 500 | COc1ncccc1C(=O)N1CCN(c2ncnc3[nH]ccc23)CC12CC2 [Example 216, (2-Methoxy-pyridin-3-yl)-[7-(7H-pyrrolo[2,3-d]pyrimidin-4-yl)-4,7-diaza-spiro[2.5]oct-4-yl]-methanone] | 
 |  |  |  | > 500 | < 100 | < 100 | < 100 | NS(=O)(=O)c1cnn(CC(=O)N2CCN(c3ncnc4[nH]ccc34)CC23CC3)c1 [Example 412, 1-{2-Oxo-2-[7-(7H-pyrrolo[2,3-d]pyrimidin-4-yl)-4,7-diaza-spiro[2.5]oct-4-yl]-ethyl}-1H-pyrazole-4-sulfonic acid amide] | 
> 500 | > 500 | > 500 | 100 to 500 |  |  |  |  | O=C(O)C1(C(=O)N2CCN(c3ncnc4[nH]ccc34)CC23CC3)CC1 [Example 85, 1-[7-(7H-Pyrrolo[2,3-d]pyrimidin-4-yl)-4,7-diaza-spiro[2.5]octane-4-carbonyl]-cyclopropanecarboxylic acid] | 
 |  |  |  | > 500 | 100 to 500 | 100 to 500 | < 100 | Nc1nc(N2CCN(C(=O)c3cnccn3)C3(CC3)C2)c2cc[nH]c2n1 [Example 302, [7-(2-Amino-7H-pyrrolo[2,3-d]pyrimidin-4-yl)-4,7-diaza-spiro[2.5]oct-4-yl]-pyrazin-2-yl-methanone] | 
100 to 500 | < 100 | < 100 | < 100 |  |  |  |  | O=C1CCC(C(=O)N2CCN(c3ncnc4[nH]ccc34)CC23CC3)CC1 [Example 23, 4-[7-(7H-Pyrrolo[2,3-d]pyrimidin-4-yl)-4,7-diazaspiro[2.5]octane-4-carbonyl]cyclohexanone] | 
> 500 | 100 to 500 | > 500 | 100 to 500 |  |  |  |  | CS(=O)(=O)c1ccc(CC(=O)N2C3CCC2CN(c2ncnc4[nH]ccc24)C3)cc1 [Example 134, 2-(4-Methanesulfonyl-phenyl)-1-[3-(7H-pyrrolo[2,3-d]pyrimidin-4-yl)-3,8-diaza-bicyclo[3.2.1]oct-8-yl]-ethanone] | 
 |  |  |  | > 500 | < 100 | < 100 | < 100 | N#CCCCC(=O)N1CCN(c2nc(N)nc3[nH]ccc23)CC12CC2 [Example 310, 5-[7-(2-Amino-7H-pyrrolo[2,3-d]pyrimidin-4-yl)-4,7-diaza-spiro[2.5]oct-4-yl]-5-oxo-pentanenitrile] | 
 |  |  |  | 100 to 500 | < 100 | < 100 | < 100 | O=C(c1cccs1)N1CCN(c2ncnc3[nH]ccc23)CC12CC2 [Example 211, [7-(7H-Pyrrolo[2,3-d]pyrimidin-4-yl)-4,7-diaza-spiro[2.5]oct-4-yl]-thiophen-2-yl-methanone] | 
 |  |  |  |  |  |  |  | CN(C)CCC(=O)N1CCN(c2ncnc3[nH]ccc23)CC12CC2 [Example 457, 3-Dimethylamino-1-[7-(7H-pyrrolo[2,3-d]pyrimidin-4-yl)-4,7-diaza-spiro[2.5]oct-4-yl]-propan-1-one] | EC50 ([1]; HTRF assay, read-out: TYK2 kinase inhibitory activity (EC50)): > 500 nM; EC50 ([2]; HTRF assay, read-out: JAK1 kinase inhibitory activity (EC50)): > 500 nM; EC50 ([3]; HTRF assay, read-out: JAK3 kinase inhibitory activity (EC50)): > 500 nM; EC50 ([4]; HTRF assay, read-out: JAK2 kinase inhibitory activity (EC50)): > 500 nM
 |  |  |  | 100 to 500 | < 100 | < 100 | < 100 | O=C(c1ccc(S(=O)(=O)NCc2ccco2)cc1)N1CCN(c2ncnc3[nH]ccc23)CC12CC2 [Example 426, N-Furan-2-ylmethyl-4-[7-(7H-pyrrolo[2,3-d]pyrimidin-4-yl)-4,7-diaza-spiro[2.5]octane-4-carbonyl]-benzenesulfonamide] | 
> 500 | < 100 | < 100 | < 100 |  |  |  |  | NS(=O)(=O)c1ccc(CC(=O)N2CCN(c3ncnc4[nH]ccc34)CC23CC3)cc1 [Example 191, 4-{2-Oxo-2-[7-(7H-pyrrolo[2,3-d]pyrimidin-4-yl)-4,7-diaza-spiro[2.5]oct-4-yl]-ethyl}-benzenesulfonamide] | 
100 to 500 | < 100 | > 500 | < 100 |  |  |  |  | O=C(c1cnc2ccccc2c1)N1CCN(c2ncnc3[nH]ccc23)CC12CC2 [Example 163, [7-(7H-Pyrrolo[2,3-d]pyrimidin-4-yl)-4,7-diaza-spiro[2.5]oct-4-yl]-quinolin-3-yl-methanone] | 
> 500 | > 500 | > 500 | > 500 |  |  |  |  | CN(CCC#N)C(=O)C1(C(=O)N2CCN(c3ncnc4[nH]ccc34)CC23CC3)CC1 [Example 87, 1-[7-(7H-Pyrrolo[2,3-d]pyrimidin-4-yl)-4,7-diaza-spiro[2.5]octane-4-carbonyl]-cyclopropanecarboxylic acid (2-cyano-ethyl)-methyl-amide] | 
> 500 | < 100 | < 100 | < 100 |  |  |  |  | O=C(c1cc2ccccc2s1)N1[C@@H]2CC[C@@H]1CN(c1ncnc3[nH]ccc13)C2 [Example 169, Benzo[b]thiophen-2-yl-[3-(7H-pyrrolo[2,3-d]pyrimidin-4-yl)-3,8-diaza-bicyclo[3.2.1]oct-8-yl]-methanone] | 
 |  |  |  | > 500 | > 500 | > 500 | > 500 | Cc1c[nH]c2ncnc(N3CCN(C(=O)c4cnccn4)C4(CC4)C3)c12 [Example 326, [7-(5-Methyl-7H-pyrrolo[2,3-d]pyrimidin-4-yl)-4,7-diaza-spiro[2.5]oct-4-yl]-pyrazin-2-yl-methanone] | 
 |  |  |  | > 500 | 100 to 500 | > 500 | < 100 | COc1cccc(C(=O)N2CCN(c3ncnc4[nH]ccc34)CC23CC3)c1OC [Example 212, (2,3-Dimethoxy-phenyl)-[7-(7H-pyrrolo[2,3-d]pyrimidin-4-yl)-4,7-diaza-spiro[2.5]oct-4-yl]-methanone] | 
 |  |  |  | < 100 | < 100 | < 100 | < 100 | N#CCCNS(=O)(=O)c1ccc(C(=O)N2CCN(c3ncnc4[nH]ccc34)CC23CC3)cc1 [Example 395, N-(2-Cyano-ethyl)-4-[7-(7H-pyrrolo[2,3-d]pyrimidin-4-yl)-4,7-diaza-spiro[2.5]octane-4-carbonyl]-benzenesulfonamide] | 
> 500 | 100 to 500 | > 500 | 100 to 500 |  |  |  |  | O=C(Cc1ccccc1)N1[C@@H]2CC[C@H]1CN(c1ncnc3[nH]ccc13)C2 [Example 32, 2-Phenyl-1-[3-(7H-pyrrolo[2,3-d]pyrimidin-4-yl)-3,8-diazabicyclo[3.2.1]oct-8-yl]ethanone] | 
> 500 | < 100 | 100 to 500 | < 100 |  |  |  |  | CS(=O)(=O)c1ccc(C(=O)N2CCN(c3ncnc4[nH]ccc34)CC23CC3)cc1N1CCCC1 [Example 194, (4-Methanesulfonyl-3-pyrrolidin-1-yl-phenyl)-[7-(7H-pyrrolo[2,3-d]pyrimidin-4-yl)-4,7-diaza-spiro[2.5]oct-4-yl]-methanone] | 
 |  |  |  | > 500 | > 500 | > 500 | > 500 | COC(=O)c1cc2c(N3CCN(C(=O)CCCC#N)C4(CC4)C3)ncnc2[nH]1 [Example 339, 4-[4-(4-Cyano-butyryl)-4,7-diaza-spiro[2.5]oct-7-yl]-7H-pyrrolo[2,3-d]pyrimidine-6-carboxylic acid methyl ester] | 

Reference: patent US9346809B2 (LEO PHARMA A/S, priority 2009, dated 2016)
